Experimental findings from ChEMBL document CHEMBL1201862, “PubChem BioAssay data set” (2004) are described below.

The structures appear in SMILES notation.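 In this assay, cells in 96-well plates receive the compound at five concentrations for 48 hours. Endpoints are linearly interpolated between the surrounding concentrations. Here, GI50 denotes the concentration required for 50% inhibition of growth.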 Calls of active or inactive are those of the source. Cut-off read from the data, not from the text of the source: active = GI50 up to about 1.1 µM and inactive = higher.

Among the test systems are 786-0; ACHN; EKVX; HCC 2998; HCT-15; HOP-62; K562; MCF7; MOLT-4; Malme-3M; NCI-H23; PC-3; SK-MEL-28; SK-MEL-2; SN12C; SNB-75; SR; TK-10; U-251.
Common to all, as to test: NCI anticancer screen, dose series, 48 h

With `CCOC(=O)NC(Nc1ccc(F)cc1)(C(=O)OCC)C(F)(F)F` (centres undefined), the GI50 with 786-0 is > 100 µM (inactive); in the assay on ACHN it was 2.62 µM (inactive); with EKVX it was > 100 µM (inactive); in the assay with HCC 2998, > 100 µM (inactive); in the assay with HCT-15, 29.6 µM; with HOP-62, > 100 µM (inactive). The GI50 in the assay with K562 is < 0.0307 µM (active); with MCF7, > 66.7 µM (inactive); in the assay with MOLT-4, 6.71 µM (inactive); in the assay with Malme-3M, > 100 µM (inactive); in the assay on NCI-H23, > 100 µM (inactive); in the assay with PC-3, 4.15 µM (inactive). The GI50 with SK-MEL-28 was > 88.5 µM (inactive); with SK-MEL-2, 0.982 µM (active); in the assay with SN12C it was > 100 µM (inactive); in the assay on SNB-75, > 100 µM (inactive); with SR, > 100 µM (inactive); in the assay on TK-10, > 24.7 µM (inactive). Further, in the assay with U-251, the GI50 is > 100 µM (inactive).
Take `CC(C1CCCC1=O)C1CCCC1=O` (centres undefined): the GI50 is > 100 µM (inactive) in the assay with 786-0; > 100 µM (inactive) with ACHN; > 100 µM (inactive) with EKVX; > 100 µM (inactive) in the assay with HCC 2998; greater than 100 µM in the assay with HCT-15; > 100 µM (inactive) in the assay with HOP-62. Besides, the GI50 with K562, in the assay with MCF7, in the assay on MOLT-4, with Malme-3M, in the assay on NCI-H23 and in the assay on PC-3 was > 100 µM (inactive) in each case. Besides, the GI50 in the assay with SK-MEL-28, in the assay with SK-MEL-2, in the assay on SN12C, in the assay on SNB-75, with SR and with TK-10 was > 100 µM (inactive) each time. Moreover, in the assay on U-251, the GI50 was > 100 µM (inactive).
With `CCOc1ccc(NC(=O)C(=O)C(/C(=N/N)C(=O)OC)c2nc3ccc([N+](=O)[O-])cc3nc2O)cc1` (centres undefined), the GI50 is > 100 µM (inactive) in the assay with 786-0; > 100 µM (inactive) in the assay on ACHN; > 100 µM (inactive) in the assay on EKVX; > 100 µM (inactive) in the assay on HCC 2998; greater than 100 µM in the assay with HCT-15; > 100 µM (inactive) with HOP-62. The GI50 in the assay on K562, in the assay with MCF7, with MOLT-4, in the assay with Malme-3M, with NCI-H23 and in the assay on PC-3 was > 100 µM (inactive) each time. The GI50 in the assay on SK-MEL-28 is > 100 µM (inactive); in the assay on SK-MEL-2, > 100 µM (inactive); in the assay with SN12C it was > 100 µM (inactive); in the assay with SNB-75, > 100 µM (inactive); in the assay on SR it was 70 µM (inactive); in the assay on TK-10, > 100 µM (inactive). In addition, the GI50 with U-251 was > 100 µM (inactive).
As for `c1c[nH]c(C23C4C5C6C4C2C6C53)n1` (centres undefined), the GI50 with 786-0 was > 100 µM (inactive); with ACHN, > 100 µM (inactive); with EKVX, > 100 µM (inactive); with HCC 2998, > 100 µM (inactive); in the assay with HCT-15 it was greater than 100 µM; with HOP-62, > 100 µM (inactive). Also, the GI50 in the assay on K562, with MCF7, in the assay with MOLT-4, in the assay with Malme-3M, with NCI-H23 and in the assay on PC-3 was > 100 µM (inactive) each time. Further, the GI50 in the assay with SK-MEL-28, in the assay on SK-MEL-2, in the assay on SN12C, with SNB-75, with SR and with TK-10 was > 100 µM (inactive) in each case. Further, in the assay with U-251, the GI50 is > 100 µM (inactive).
For `Cc1nc2c(nc1C)-c1[nH]c3c(c1C(=O)C2=O)CCCC3=O`, the GI50 was 2.54 µM (inactive) in the assay on 786-0; 2.64 µM (inactive) in the assay with ACHN; 1.48 µM (inactive) in the assay with EKVX; 2.08 µM (inactive) in the assay on HCC 2998; 2.81 µM in the assay on HCT-15; 2.32 µM (inactive) with HOP-62. In addition, the GI50 in the assay with K562 is 2.03 µM (inactive); with MCF7, 1.38 µM (inactive); in the assay with MOLT-4 it was 2.23 µM (inactive); in the assay on Malme-3M it was 1.29 µM (inactive); in the assay with NCI-H23, 1.93 µM (inactive); with PC-3, 4.25 µM (inactive). In addition, the GI50 with SK-MEL-28 was 1.71 µM (inactive); in the assay with SK-MEL-2, 1.79 µM (inactive); in the assay on SN12C, 1.77 µM (inactive); in the assay with SNB-75, 1.77 µM (inactive); with SR it was 2.08 µM (inactive); with TK-10 it was 17.5 µM (inactive). The GI50 in the assay with U-251 is 1.34 µM (inactive).
With `N#Cc1ccc(NC(=O)C(CC(=O)OCc2ccccc2)NC(=O)OCc2ccccc2)cc1` (centres undefined), the GI50 in the assay on 786-0 was > 10 µM (inactive); in the assay with ACHN, > 10 µM (inactive); in the assay with EKVX it was > 10 µM (inactive); in the assay with HCC 2998, 93.3 µM (inactive); with HCT-15, greater than 10 µM; in the assay with HOP-62, > 10 µM (inactive). The GI50 in the assay on K562 is > 10 µM (inactive); in the assay with MCF7 it was > 10 µM (inactive); with MOLT-4, > 10 µM (inactive); in the assay with Malme-3M, 5.74 µM (inactive); with NCI-H23, > 10 µM (inactive); in the assay on PC-3, > 10 µM (inactive). Further, the GI50 was > 10 µM (inactive) with SK-MEL-28; > 100 µM (inactive) with SK-MEL-2; > 10 µM (inactive) in the assay with SN12C; > 10 µM (inactive) in the assay with SNB-75; > 10 µM (inactive) in the assay with SR; > 10 µM (inactive) in the assay with TK-10. Moreover, in the assay with U-251, the GI50 is > 10 µM (inactive).
`Cc1ccc(C)c(COCCOCn2ccc(N)nc2=O)c1`: the GI50 in the assay on 786-0 is > 100 µM (inactive); with ACHN it was > 100 µM (inactive); in the assay with EKVX it was > 100 µM (inactive); in the assay on HCC 2998, > 100 µM (inactive); in the assay with HCT-15, greater than 100 µM; in the assay with HOP-62 it was > 100 µM (inactive). Moreover, the GI50 with K562, with MCF7, with MOLT-4, in the assay with Malme-3M, with NCI-H23 and with PC-3 was > 100 µM (inactive) in each case. In addition, the GI50 with SK-MEL-28, with SK-MEL-2, in the assay with SN12C, in the assay with SNB-75, with SR and with TK-10 was > 100 µM (inactive) in each case. For the same compound, the GI50 with U-251 was > 100 µM (inactive).
On to `C=CCN1C(=O)/C(=C/c2ccco2)N=C1SC/C=C/C`, for which the GI50 in the assay on 786-0 was 28.2 µM (inactive); in the assay with ACHN, 35.4 µM (inactive); in the assay with EKVX, 37.7 µM (inactive); in the assay on HCC 2998 it was 93.8 µM (inactive); in the assay on HCT-15 it was 35.7 µM; in the assay on HOP-62 it was > 100 µM (inactive). Also, the GI50 in the assay with K562 was 32.4 µM (inactive); in the assay with MCF7, 18.6 µM (inactive); with MOLT-4, 19.5 µM (inactive); with Malme-3M it was 44.4 µM (inactive); in the assay on NCI-H23 it was 50.9 µM (inactive); in the assay with PC-3, 39 µM (inactive). Besides, the GI50 with SK-MEL-28 is 46.1 µM (inactive); in the assay with SK-MEL-2 it was 29.4 µM (inactive); in the assay with SN12C, 23.5 µM (inactive); in the assay on SNB-75, 33.8 µM (inactive); with SR, 21.6 µM (inactive); with TK-10 it was > 100 µM (inactive). In addition, in the assay on U-251, the GI50 was 49.2 µM (inactive).
`CN(CCNC(=S)c1cn(C)c2c1ccc1ccccc12)CCNC(=S)c1cn(C)c2c1ccc1ccccc12`: the GI50 in the assay with 786-0 was 53.6 µM (inactive); in the assay with ACHN, > 100 µM (inactive); with EKVX, 67.9 µM (inactive); with HCC 2998, 16.6 µM (inactive); in the assay with HCT-15 it was greater than 100 µM; in the assay on HOP-62, > 100 µM (inactive). Also, the GI50 in the assay with K562 was 54.8 µM (inactive); in the assay with MCF7, 33.5 µM (inactive); with MOLT-4, 24.7 µM (inactive); in the assay on Malme-3M, > 100 µM (inactive); in the assay with NCI-H23, 48 µM (inactive); in the assay with PC-3, 28.6 µM (inactive). Besides, the GI50 with SK-MEL-28 was 64.4 µM (inactive); in the assay on SK-MEL-2, > 100 µM (inactive); with SN12C, 40.9 µM (inactive); with SNB-75, 10.7 µM (inactive); in the assay on SR, 49.5 µM (inactive); with TK-10 it was > 100 µM (inactive). Besides, the GI50 with U-251 is 23.7 µM (inactive).
`CCOc1nc2sc3c(c2c(=O)n1CCSSCCn1c(OCC)nc2sc4c(c2c1=O)CCCC4)CCCC3`: the GI50 is > 100 µM (inactive) in the assay on 786-0; > 100 µM (inactive) in the assay on ACHN; > 100 µM (inactive) in the assay on EKVX; > 100 µM (inactive) with HCC 2998; greater than 100 µM in the assay with HCT-15; > 100 µM (inactive) in the assay on HOP-62. Further, the GI50 in the assay with K562, in the assay on MCF7, in the assay with MOLT-4, in the assay on Malme-3M, in the assay on NCI-H23 and in the assay on PC-3 was > 100 µM (inactive) each time. In addition, the GI50 in the assay with SK-MEL-28, in the assay with SK-MEL-2, with SN12C, in the assay with SNB-75, in the assay on SR and in the assay with TK-10 was > 100 µM (inactive) throughout. The GI50 in the assay with U-251 was > 100 µM (inactive).
Regarding `COc1cc(/C=C/C=C2\CC/C(=C\C=C\c3ccc(O)c(OC)c3)C2=O)ccc1O`, the GI50 in the assay with 786-0 was > 100 µM (inactive); in the assay with ACHN, > 100 µM (inactive); in the assay with EKVX, > 97.3 µM (inactive); with HCC 2998, > 100 µM (inactive); in the assay with HCT-15, greater than 100 µM; with HOP-62, > 100 µM (inactive). Also, the GI50 with K562 is 15.2 µM (inactive); in the assay with MCF7, > 100 µM (inactive); in the assay with MOLT-4, 1.02 µM (active); in the assay with Malme-3M, > 85.7 µM (inactive); in the assay on NCI-H23, > 73.1 µM (inactive); in the assay on PC-3, > 100 µM (inactive). Further, the GI50 in the assay on SK-MEL-28 is > 100 µM (inactive); in the assay on SK-MEL-2 it was > 100 µM (inactive); with SN12C it was > 100 µM (inactive); with SNB-75, > 100 µM (inactive); in the assay on SR it was 2.53 µM (inactive); in the assay on TK-10, > 100 µM (inactive). Also, in the assay with U-251, the GI50 is > 100 µM (inactive).
